Reference: patent US9756852B2, “Topical delivery formulation” (MERIAL INC., priority 2014, dated 2017)

Experiments:
[1] = tested on: horn fly; assay: in-vivo efficacy studies A and B: pour-on formulations for control of horn fly on cows; parameters: species or system Haematobia irritans on cows; conditions: 30% Tributyl acetyl citrate
Procedure: Although many different actives may work with the formulation of the invention, 1H-pyrazole-3-carbonitrile, 1-[2,6-dichloro-4-(trifluoromethyl)phenyl]-5-methyl-4-[(trifluoromethyl)sulfinyl] (i.e., ML465) is the compound used to test topical formulations for control of horn fly on cows for a duration of one month or longer.
(§1) In-vivo and in-vitro studies were conducted to compare wash-off resistance of formulations prepared with lipophilic solvents and with polymers.
It can be seen that the amount of ML465 washed off is at, or below, 10% of the applied dose, indicating a sharp decrease upon exposure to water. This was not sufficient to support thirty days efficacy duration. Thus, efficacy may depend on resistance of the solvent system to water exposure.

[2] = In-lab water resistance (% ML465 removed after water exposure); assay type: physicochemical; conditions: for In-lab Water Resistance (% ML465 Removed after Water Exposure (n = 2)): 30% Tributyl acetyl citrate
Procedure: as §1
The in-vivo studies of Table 1 were followed with in-vitro studies conducted to assess water resistance of “conventional” solvent systems. Conventional pour-on solvent formulations described below were tested using ML465 as the active under exposure to water for 20 and 40 minutes.
Next, the water resistance of the inventive solvent systems was tested in vitro.

Cc1c([S+]([O-])C(F)(F)F)c(C#N)nn1-c1c(Cl)cc(C(F)(F)F)cc1Cl (stereo not shown) [ML465, 1H-pyrazole-3-carbonitrile, 1-[2,6-dichloro-4-(trifluoromethyl)phenyl]-5-methyl-4-[(trifluoromethyl)sulfinyl]]
Duration of above 90% efficacy ([1]; study A, 3.0% w/v ML465, Miglyol 840): 17 days | Duration of above 90% efficacy ([1]; study B, 0.5% w/v ML465, 5% Polypropylene Glycol (15) stearyl ether, Soybean Oil): 17 days | Duration of above 90% efficacy ([1]; study B, 1.0% w/v ML465, 3% Polypropylene Glycol (15) stearyl ether, 8.5% Isopropyl palmitate, 7% Isobutene H25, Soybean Oil): 17 days | Duration of above 90% efficacy ([1]; study B, 1.0% w/v ML465, 3% Polypropylene Glycol (15) stearyl ether, 10% Isopropyl palmitate, 7% cetearyl octanoate, 10% butyl stearate, Soybean Oil): 24 days | In-lab Water Resistance (% ML465 Removed after Water Exposure (n = 2)) ([2]; 20 min, 5% PPG-15 stearyl ether, 6% Isobutene H25, Soybean Oil): 5.2% | In-lab Water Resistance (% ML465 Removed after Water Exposure (n = 2)) ([2]; 20 min, 5% PPG-15 stearyl ether, 10% Isopropyl palmitate, 10% ceteary octanote, 10% butyl stearate, Soybean Oil): 8.8% | In-lab Water Resistance (% ML465 Removed after Water Exposure (n = 2)) ([2]; 20 min, 5% PPG-15 stearyl ether, Soybean oil): 7.5% | In-lab Water Resistance (% ML465 Removed after Water Exposure (n = 2)) ([2]; 20 min, Miglyol 840): 2.4% | In-lab Water Resistance (% ML465 Removed after Water Exposure (n = 2)) ([2]; 40 min, 5% PPG-15 stearyl ether, 6% Isobutene H25, Soybean Oil): 7.3% | In-lab Water Resistance (% ML465 Removed after Water Exposure (n = 2)) ([2]; 40 min, 5% PPG-15 stearyl ether, 10% Isopropyl palmitate, 10% ceteary octanote, 10% butyl stearate, Soybean Oil): 9.2% | In-lab Water Resistance (% ML465 Removed after Water Exposure (n = 2)) ([2]; 40 min, 5% PPG-15 stearyl ether, Soybean oil): 10.1% | In-lab Water Resistance (% ML465 Removed after Water Exposure (n = 2)) ([2]; 40 min, Miglyol 840): 5.2% | amount of ML465 washed off, % of the applied dose ([2]; traditional formulations of trials A and B, exposure to water): ≤ 10%
